Experimental data reported in BindingDB's records for doi:10.1016/j.bmcl.2020.127353 (Lanzhou University, 2020).
Where a SMILES comes first, the peptide text is derived from it. The star is where a group is joined. Stearoyl = CCCCCCCCCCCCCCCCCC(=O)*

Experiment: Binding affinity to NK1R (unknown origin) expressed in HEK293 cells assessed as reduction in cell viability incubated for 96 hrs by MTT assay

CCCCCCCCCCCCCCCCCC(=O)N[C@@H](CCCCN)C(=O)N[C@@H](Cc1c[nH]c2ccccc12)C(=O)N[C@@H](CCCCN)C(=O)N[C@@H](CC(C)C)C(=O)N[C@@H](CCC(=O)O)C(=O)N[C@@H](CCCCN)C(=O)N[C@@H](CCCCN)C(=O)N[C@H](C(=O)NCC(=O)N[C@@H](C)C(=O)N[C@H](C(=O)N[C@@H](CC(C)C)C(=O)N[C@H](C(=O)N[C@@H](CS)C(=O)N[C@H](C(=O)N[C@@H](CC(C)C)C(=O)N[C@@H](CCCNC(=N)N)C(=O)N1CCC[C@H]1C(=O)N[C@@H](CCCCN)C(=O)N1CCC[C@H]1C(=O)N[C@@H](CCC(N)=O)C(=O)N[C@@H](CCC(N)=O)C(=O)N[C@@H](Cc1ccccc1)C(=O)N[C@@H](Cc1ccccc1)C(=O)NCC(=O)N[C@@H](CC(C)C)C(=O)N[C@@H](CCSC)C(N)=O)C(C)C)[C@@H](C)CC)C(C)C)[C@@H](C)CC (Stearoyl-KWKLEKKIGAVLICVLRPKPQQFFGLM-NH2)
EC50: 5.3 µM
